Results from ChEMBL document CHEMBL1697692, “Developing structure-activity relationships for the prediction of hepatotoxicity” (Chem Res Toxicol, 2010).
Numbered stars: 1 amine (or outer) side, 2 acyl side, 3 side chain; on linkers, the order of the positions; unused ones are H or OH. Bridge positions count the residues as written; N and C are the ends. Square brackets hold non-standard residues; d marks the D form. Peptide text beside a SMILES is read from it. * marks the point of attachment. ξ: configuration not given here. X1 = N=C1NCCC([C@H](N[*:1])C(=O)[*:2])N1; ΔAla(Z-3-ureido) = NC(=O)N/C=C(\N)C(=O)O; ξβ3hOrn = NCCCC(N)CC(=O)*; Dap = NC[C@H](N)C(=O)O

System: Hepatotoxicity
Test: Literature-mined public compounds from Greene et al multi-species hepatotoxicity modelling dataset

| Molecule | Hepatotoxicity |
| --- | --- |
| O=P1(NCCCl)OCCCN1CCCl (stereo not given) [IFOSFAMIDE] | HH: Evidence of human hepatotoxicity |
| NNCCc1ccccc1 [PHENELZINE] | NE: No evidence of hepatotoxicity in any species |
| CCN1CCN(C(=O)N[C@@H](C(=O)N[C@@H]2C(=O)N3C(C(=O)O)=C(CSc4nnnn4C)CS[C@H]23)c2ccc(O)cc2)C(=O)C1=O.O.O [CEFOPERAZONE DIHYDRATE] | NE: No evidence of hepatotoxicity in any species |
| C#C[C@]1(O)CC[C@H]2[C@@H]3CCc4cc(OC)ccc4[C@H]3CC[C@@]21C [MESTRANOL] | HH: Evidence of human hepatotoxicity |
| COc1cc(CNC(=O)CCCC/C=C/C(C)C)ccc1O [CAPSAICIN] | NE: No evidence of hepatotoxicity in any species |
| CCCSc1ccc2nc(NC(=O)OC)[nH]c2c1 [ALBENDAZOLE] | HH: Evidence of human hepatotoxicity |
| CC1=C(C(=O)O)N2C(=O)[C@@H](NC(=O)[C@H](N)c3ccc(O)cc3)[C@H]2SC1 [CEFADROXIL] | HH: Evidence of human hepatotoxicity |
| CN(N=O)C(=O)N[C@@H](C=O)[C@@H](O)[C@H](O)[C@H](O)CO [STREPTOZOCIN] | NE: No evidence of hepatotoxicity in any species |
| CN1CCN(CCCN2c3ccccc3Sc3ccc(Cl)cc32)CC1.O=C(O)/C=C\C(=O)O.O=C(O)/C=C\C(=O)O [PROCHLORPERAZINE MALEATE] | HH: Evidence of human hepatotoxicity |
| NC(=O)OCC(COC(N)=O)c1ccccc1 [FELBAMATE] | HH: Evidence of human hepatotoxicity |
| CC(C(=O)O)c1ccc(-c2ccccc2)c(F)c1 (stereo not given) [FLURBIPROFEN] | HH: Evidence of human hepatotoxicity |
| O=C(O)CCCC[C@@H]1SC[C@@H]2NC(=O)N[C@@H]21 [BIOTIN] | NE: No evidence of hepatotoxicity in any species |
| CC[N+](CC)(CC)CCOc1cccc(OCC[N+](CC)(CC)CC)c1OCC[N+](CC)(CC)CC.[I-].[I-].[I-] [GALLAMINE TRIETHIODIDE] | NE: No evidence of hepatotoxicity in any species |
| CCOC(=O)[C@H](CCc1ccccc1)N[C@H]1CCc2ccccc2N(CC(=O)O)C1=O [BENAZEPRIL] | WE: Weak evidence (<10 case reports) of human hepatotoxicity |
| [N-]=[N+]=CC(=O)OC[C@H](N)C(=O)O [AZASERINE] | AH: Evidence for animal hepatotoxicity but not tested in humans |
| CC(CCc1ccc(O)cc1)NCCc1ccc(O)c(O)c1.Cl (stereo not given) [DOBUTAMINE HYDROCHLORIDE] | NE: No evidence of hepatotoxicity in any species |
| O=C1NC(=O)C(O)(O)C(=O)N1 | NE: No evidence of hepatotoxicity in any species |
| COC(=O)C1=C(C)NC(C)=C(C(=O)OC)C1c1ccccc1[N+](=O)[O-] [NIFEDIPINE] | HH: Evidence of human hepatotoxicity |
| C[C@H](O)C(=O)Nc1c(I)c(C(=O)NC(CO)CO)c(I)c(C(=O)NC(CO)CO)c1I [IOPAMIDOL] | HH: Evidence of human hepatotoxicity |
| O=P1(N(CCCl)CCCl)NCCCO1 (stereo not given) [CYCLOPHOSPHAMIDE ANHYDROUS] | HH: Evidence of human hepatotoxicity |
| Nc1nc2ncc(CNc3ccc(C(=O)N[C@@H](CCC(=O)O)C(=O)O)cc3)nc2c(=O)[nH]1 [FOLIC ACID] | NE: No evidence of hepatotoxicity in any species |
| CCC1(c2ccc(N)cc2)CCC(=O)NC1=O (stereo not given) [AMINOGLUTETHIMIDE] | NE: No evidence of hepatotoxicity in any species |
| CN(C)CCCN1c2ccccc2CCc2ccc(Cl)cc21 [CLOMIPRAMINE] | HH: Evidence of human hepatotoxicity |

| Molecule | Hepatotoxicity |
| --- | --- |
| C[C@H](CCC(=O)O)[C@H]1CC[C@H]2[C@@H]3[C@H](O)C[C@@H]4C[C@H](O)CC[C@]4(C)[C@H]3CC[C@]12C [CHENODIOL] | HH: Evidence of human hepatotoxicity |
| Cl.NCCNCCNCCN | HH: Evidence of human hepatotoxicity |
| Cc1cc(C(=O)NNCc2ccccc2)no1 [ISOCARBOXAZID] | WE: Weak evidence (<10 case reports) of human hepatotoxicity |
| CADMIUM DICHLORIDE | AH: Evidence for animal hepatotoxicity but not tested in humans |
| CC1(C)S[C@@H]2[C@H](NC(=O)[C@H](NC(=O)N3CCNC3=O)c3ccccc3)C(=O)N2[C@H]1C(=O)[O-].[Na+] [AZLOCILLIN SODIUM] | NE: No evidence of hepatotoxicity in any species |
| CNCCCC12CCC(c3ccccc31)c1ccccc12 [MAPROTILINE] | WE: Weak evidence (<10 case reports) of human hepatotoxicity |
| Nc1c(CC(=O)O)cccc1C(=O)c1ccc(Br)cc1 [BROMFENAC] | HH: Evidence of human hepatotoxicity |
| C[C@]12CC[C@@H]3c4ccc(O)cc4CC[C@H]3[C@@H]1CC[C@@H]2O[C@@H]1O[C@H](C(=O)O)[C@@H](O)[C@H](O)[C@H]1O [ESTRADIOL 17B GLUCURONIDE] | HH: Evidence of human hepatotoxicity |
| COc1ccc2[nH]cc(CCNC(C)=O)c2c1 [MELATONIN] | NE: No evidence of hepatotoxicity in any species |
| [Cl-].[Na+] [SODIUM CHLORIDE] | NE: No evidence of hepatotoxicity in any species |
| Cc1ccc(S(=O)(=O)NC(=O)NN2CC3CCCC3C2)cc1 (stereo not given) [GLICLAZIDE] | WE: Weak evidence (<10 case reports) of human hepatotoxicity |
| CN(CCOc1ccc(CC2SC(=O)NC2=O)cc1)c1ccccn1 (stereo not given) [ROSIGLITAZONE] | WE: Weak evidence (<10 case reports) of human hepatotoxicity |
| Clc1ccc(CCC(Cn2ccnc2)Sc2c(Cl)cccc2Cl)cc1.O=[N+]([O-])O (stereo not given) [BUTOCONAZOLE NITRATE] | NE: No evidence of hepatotoxicity in any species |
| CC(COc1ccccc1)NC(C)C(O)c1ccc(O)cc1.Cl (stereo not given) [ISOXSUPRINE HYDROCHLORIDE] | NE: No evidence of hepatotoxicity in any species |
| CC(C)(C)NCC(O)c1cc(O)cc(O)c1.O=S(=O)(O)O (stereo not given) | HH: Evidence of human hepatotoxicity |
| POTASSIUM DICHROMATE | AH: Evidence for animal hepatotoxicity but not tested in humans |
| CC(=O)OCC(=O)[C@@]1(O)CC[C@H]2[C@@H]3CCC4=CC(=O)CC[C@]4(C)[C@@]3(F)[C@@H](O)C[C@@]21C [FLUDROCORTISONE ACETATE] | NE: No evidence of hepatotoxicity in any species |
| C[C@@H]1NC(=O)[C@@H](N)CNC(=O)[C@H](C2CCNC(=N)N2)NC(=O)/C(=C/NC(N)=O)NC(=O)[C@H](CNC(=O)CC(N)CCCN)NC1=O.N=C1NCCC([C@@H]2NC(=O)/C(=C/NC(N)=O)NC(=O)[C@H](CNC(=O)CC(N)CCCN)NC(=O)[C@H](CO)NC(=O)[C@@H](N)CNC2=O)N1.O=S(=O)(O)O.O=S(=O)(O)O (stereo partly drawn) [CAPREOMYCIN SULFATE] (H-[Dap]S[Dap](ξβ3hOrn)[ΔAla(Z-3-ureido)][X1]; lactam 1-C) | NE: No evidence of hepatotoxicity in any species |
| CS(=O)(=O)OCCCCOS(C)(=O)=O [BUSULFAN] | HH: Evidence of human hepatotoxicity |
| C[C@@H]1C[C@H]2[C@@H]3CCC4=CC(=O)C=C[C@]4(C)[C@@]3(F)[C@@H](O)C[C@]2(C)[C@@]1(O)C(=O)CO [DEXAMETHASONE] | NE: No evidence of hepatotoxicity in any species |
| COc1ccc(OC)c(C(O)C(C)N)c1.Cl (stereo not given) [METHOXAMINE HYDROCHLORIDE] | NE: No evidence of hepatotoxicity in any species |
| NC(=O)c1cnccn1 [PYRAZINAMIDE] | HH: Evidence of human hepatotoxicity |
